The target of experiment [1] is Dual specificity protein kinase CLK4 (Homo sapiens, UniProt Q9HAZ1). The experiment is described as follows: Selectivity interaction (KinomeScan (DiscoverX)) EUB0000607a CLK4. As to conditions: at 10 µM.
The target in experiment [2] is Myosin light chain kinase, smooth muscle (Homo sapiens, UniProt Q15746). Put plainly: Selectivity interaction (KinomeScan (DiscoverX)) EUB0000607a MYLK. The note with it: at 10 µM.
The target in experiment [3] is T1, NT-3 growth factor receptor (Homo sapiens, UniProt Q16288). The experiment is described as follows: Selectivity interaction (KinomeScan (DiscoverX)) EUB0000229b NTRK3. As to conditions: at 10 µM.
T1 sequence (Q16288 32-839 limits assumed): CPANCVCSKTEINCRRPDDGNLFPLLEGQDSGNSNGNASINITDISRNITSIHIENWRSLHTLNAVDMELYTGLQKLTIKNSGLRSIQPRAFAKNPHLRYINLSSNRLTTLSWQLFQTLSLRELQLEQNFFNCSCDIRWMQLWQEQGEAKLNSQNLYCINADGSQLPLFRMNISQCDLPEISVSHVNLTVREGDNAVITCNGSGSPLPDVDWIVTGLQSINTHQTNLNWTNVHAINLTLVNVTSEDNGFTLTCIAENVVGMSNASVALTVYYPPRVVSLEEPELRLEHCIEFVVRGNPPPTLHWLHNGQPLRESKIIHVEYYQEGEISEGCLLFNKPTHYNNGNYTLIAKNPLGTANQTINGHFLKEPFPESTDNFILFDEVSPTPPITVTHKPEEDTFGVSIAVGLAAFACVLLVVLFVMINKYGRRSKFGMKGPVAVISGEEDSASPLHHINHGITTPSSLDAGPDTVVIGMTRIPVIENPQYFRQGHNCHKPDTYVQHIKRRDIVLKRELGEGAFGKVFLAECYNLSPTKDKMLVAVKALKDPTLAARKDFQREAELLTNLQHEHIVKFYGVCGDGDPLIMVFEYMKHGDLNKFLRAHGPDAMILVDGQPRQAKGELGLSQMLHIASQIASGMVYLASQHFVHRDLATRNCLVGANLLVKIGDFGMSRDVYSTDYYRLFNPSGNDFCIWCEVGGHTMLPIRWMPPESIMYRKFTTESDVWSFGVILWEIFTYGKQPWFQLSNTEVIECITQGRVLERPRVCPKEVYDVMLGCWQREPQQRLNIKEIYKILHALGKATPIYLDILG
In experiment [4] the target is Death-associated protein kinase 3 (Homo sapiens) (UniProt O43293). The note with it: at 10 µM.
Sequence of Death-associated protein kinase 3 (Homo sapiens) (O43293 whole entry, looked up): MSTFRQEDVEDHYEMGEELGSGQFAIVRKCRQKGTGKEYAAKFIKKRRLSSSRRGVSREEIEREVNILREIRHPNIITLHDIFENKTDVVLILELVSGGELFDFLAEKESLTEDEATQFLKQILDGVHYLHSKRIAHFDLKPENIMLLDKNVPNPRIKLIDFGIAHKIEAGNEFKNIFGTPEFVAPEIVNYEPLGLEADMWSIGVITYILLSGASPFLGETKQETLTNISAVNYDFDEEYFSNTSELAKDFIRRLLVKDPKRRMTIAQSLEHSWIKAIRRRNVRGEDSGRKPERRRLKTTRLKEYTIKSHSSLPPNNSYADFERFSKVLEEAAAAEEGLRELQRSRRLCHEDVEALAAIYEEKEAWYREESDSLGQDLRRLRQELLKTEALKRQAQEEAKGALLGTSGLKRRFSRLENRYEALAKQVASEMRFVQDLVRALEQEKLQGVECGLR
Experiment [5] deals with T1, NT-3 growth factor receptor. The note with it: at 10 µM.
Experiment [6] has as its target T2, Serine/threonine-protein kinase D3 (Homo sapiens) (UniProt O94806).
T2 sequence (whole entry): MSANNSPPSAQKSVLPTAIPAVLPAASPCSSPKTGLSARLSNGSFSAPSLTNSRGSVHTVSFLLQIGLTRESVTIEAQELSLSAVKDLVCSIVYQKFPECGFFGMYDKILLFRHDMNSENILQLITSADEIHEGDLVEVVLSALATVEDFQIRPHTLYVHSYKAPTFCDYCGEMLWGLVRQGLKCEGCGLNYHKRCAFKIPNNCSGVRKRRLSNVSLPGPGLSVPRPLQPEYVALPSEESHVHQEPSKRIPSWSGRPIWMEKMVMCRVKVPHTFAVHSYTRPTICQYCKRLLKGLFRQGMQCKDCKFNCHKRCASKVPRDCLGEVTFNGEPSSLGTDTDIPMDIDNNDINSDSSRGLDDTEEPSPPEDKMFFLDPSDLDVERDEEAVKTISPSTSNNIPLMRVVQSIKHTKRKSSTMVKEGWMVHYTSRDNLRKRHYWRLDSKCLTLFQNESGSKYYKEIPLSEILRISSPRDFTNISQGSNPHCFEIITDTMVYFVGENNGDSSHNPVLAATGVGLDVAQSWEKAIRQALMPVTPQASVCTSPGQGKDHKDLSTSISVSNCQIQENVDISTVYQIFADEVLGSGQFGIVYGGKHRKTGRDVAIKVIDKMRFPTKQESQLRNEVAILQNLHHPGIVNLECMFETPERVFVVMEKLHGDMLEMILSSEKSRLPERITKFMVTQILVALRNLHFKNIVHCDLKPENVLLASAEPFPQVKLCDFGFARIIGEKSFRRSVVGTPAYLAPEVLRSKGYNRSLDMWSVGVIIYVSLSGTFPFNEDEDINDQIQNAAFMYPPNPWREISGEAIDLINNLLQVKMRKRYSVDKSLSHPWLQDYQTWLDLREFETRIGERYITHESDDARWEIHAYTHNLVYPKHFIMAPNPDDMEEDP
As to conditions: at 10 µM.

In experiment [7] the target is Serine/threonine-protein kinase tousled-like 2 (Homo sapiens) (UniProt Q86UE8). The note with it: at 10 µM.
Sequence of Serine/threonine-protein kinase tousled-like 2 (Homo sapiens) (Q86UE8 whole entry, looked up): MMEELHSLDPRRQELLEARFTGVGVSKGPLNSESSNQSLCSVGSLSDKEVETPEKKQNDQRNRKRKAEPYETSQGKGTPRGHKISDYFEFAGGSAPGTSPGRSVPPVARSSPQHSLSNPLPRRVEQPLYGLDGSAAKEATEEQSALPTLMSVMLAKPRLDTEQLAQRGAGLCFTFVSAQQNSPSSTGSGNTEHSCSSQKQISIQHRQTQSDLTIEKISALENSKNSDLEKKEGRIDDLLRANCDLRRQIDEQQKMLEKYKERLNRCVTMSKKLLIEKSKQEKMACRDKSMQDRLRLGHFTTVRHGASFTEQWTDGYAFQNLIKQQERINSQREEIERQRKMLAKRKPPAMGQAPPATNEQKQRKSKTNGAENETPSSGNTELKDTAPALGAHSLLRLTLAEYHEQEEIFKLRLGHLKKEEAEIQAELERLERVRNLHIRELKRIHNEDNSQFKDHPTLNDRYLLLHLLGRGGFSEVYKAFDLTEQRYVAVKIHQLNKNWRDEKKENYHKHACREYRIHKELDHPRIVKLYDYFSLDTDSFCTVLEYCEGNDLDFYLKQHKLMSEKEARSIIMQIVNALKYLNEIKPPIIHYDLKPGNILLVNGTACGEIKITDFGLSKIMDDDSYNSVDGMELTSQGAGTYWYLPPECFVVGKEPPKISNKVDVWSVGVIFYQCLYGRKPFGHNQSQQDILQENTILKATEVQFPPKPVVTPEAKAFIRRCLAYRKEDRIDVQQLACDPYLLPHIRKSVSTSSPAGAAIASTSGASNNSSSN
For experiment [8], the target named is T3, Tyrosine-protein kinase ZAP-70 (Homo sapiens) (UniProt P43403).
T3 sequence (whole entry): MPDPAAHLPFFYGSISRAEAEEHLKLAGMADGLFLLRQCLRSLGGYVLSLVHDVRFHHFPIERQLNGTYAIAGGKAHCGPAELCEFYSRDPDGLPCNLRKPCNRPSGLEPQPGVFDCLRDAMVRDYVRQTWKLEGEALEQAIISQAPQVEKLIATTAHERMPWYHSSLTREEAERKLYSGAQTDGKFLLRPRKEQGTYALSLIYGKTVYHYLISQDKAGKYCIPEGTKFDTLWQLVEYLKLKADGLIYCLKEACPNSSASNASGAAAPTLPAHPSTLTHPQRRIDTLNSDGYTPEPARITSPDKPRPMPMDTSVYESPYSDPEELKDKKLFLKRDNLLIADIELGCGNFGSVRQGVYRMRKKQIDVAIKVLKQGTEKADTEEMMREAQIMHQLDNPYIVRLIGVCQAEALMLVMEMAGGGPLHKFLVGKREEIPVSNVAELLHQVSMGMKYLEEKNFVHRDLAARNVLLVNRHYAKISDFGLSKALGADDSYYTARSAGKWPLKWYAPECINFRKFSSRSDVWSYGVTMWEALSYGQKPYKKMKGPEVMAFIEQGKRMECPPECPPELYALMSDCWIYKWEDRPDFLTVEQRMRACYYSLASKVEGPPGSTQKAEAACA
The experiment is described as follows: Selectivity interaction (ProQinase) EUB0000171b ZAP70.

The target of experiment [9] is T4, Tyrosine-protein kinase JAK3 (Homo sapiens) (UniProt P52333).
T4 sequence (whole entry): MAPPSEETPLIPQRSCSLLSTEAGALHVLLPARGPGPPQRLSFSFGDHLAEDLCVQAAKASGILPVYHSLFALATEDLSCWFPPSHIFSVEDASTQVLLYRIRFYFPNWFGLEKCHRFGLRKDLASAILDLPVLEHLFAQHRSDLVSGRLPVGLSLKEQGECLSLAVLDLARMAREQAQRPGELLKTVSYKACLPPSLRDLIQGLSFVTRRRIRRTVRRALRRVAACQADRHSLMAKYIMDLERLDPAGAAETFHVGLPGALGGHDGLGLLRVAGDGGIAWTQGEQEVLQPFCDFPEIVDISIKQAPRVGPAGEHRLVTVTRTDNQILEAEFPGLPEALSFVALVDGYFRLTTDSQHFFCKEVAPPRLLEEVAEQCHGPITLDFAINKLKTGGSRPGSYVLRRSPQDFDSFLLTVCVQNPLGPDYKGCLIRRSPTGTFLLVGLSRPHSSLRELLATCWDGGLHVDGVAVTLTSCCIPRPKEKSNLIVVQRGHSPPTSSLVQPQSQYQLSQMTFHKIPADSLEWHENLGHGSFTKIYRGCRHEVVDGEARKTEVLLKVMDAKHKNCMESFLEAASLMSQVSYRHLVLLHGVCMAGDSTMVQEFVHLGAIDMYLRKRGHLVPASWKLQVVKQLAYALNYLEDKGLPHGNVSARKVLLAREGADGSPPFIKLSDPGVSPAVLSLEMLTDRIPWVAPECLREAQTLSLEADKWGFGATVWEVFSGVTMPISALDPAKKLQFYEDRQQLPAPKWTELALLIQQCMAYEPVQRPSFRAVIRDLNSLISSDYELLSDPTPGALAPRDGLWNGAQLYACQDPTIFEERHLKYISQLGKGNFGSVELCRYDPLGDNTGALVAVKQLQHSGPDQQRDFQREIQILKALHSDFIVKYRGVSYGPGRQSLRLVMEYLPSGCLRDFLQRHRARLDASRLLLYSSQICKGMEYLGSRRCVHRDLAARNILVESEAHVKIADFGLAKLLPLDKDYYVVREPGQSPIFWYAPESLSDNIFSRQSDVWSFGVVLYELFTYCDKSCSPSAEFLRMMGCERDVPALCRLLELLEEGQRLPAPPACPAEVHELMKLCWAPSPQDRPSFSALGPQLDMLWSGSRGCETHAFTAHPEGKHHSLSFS
The experiment is described as follows: Selectivity interaction (KinomeScan (DiscoverX)) EUB0000618a JAK3. As to conditions: at 10 µM.

Sequence of Myosin light chain kinase, smooth muscle (Q15746 whole entry): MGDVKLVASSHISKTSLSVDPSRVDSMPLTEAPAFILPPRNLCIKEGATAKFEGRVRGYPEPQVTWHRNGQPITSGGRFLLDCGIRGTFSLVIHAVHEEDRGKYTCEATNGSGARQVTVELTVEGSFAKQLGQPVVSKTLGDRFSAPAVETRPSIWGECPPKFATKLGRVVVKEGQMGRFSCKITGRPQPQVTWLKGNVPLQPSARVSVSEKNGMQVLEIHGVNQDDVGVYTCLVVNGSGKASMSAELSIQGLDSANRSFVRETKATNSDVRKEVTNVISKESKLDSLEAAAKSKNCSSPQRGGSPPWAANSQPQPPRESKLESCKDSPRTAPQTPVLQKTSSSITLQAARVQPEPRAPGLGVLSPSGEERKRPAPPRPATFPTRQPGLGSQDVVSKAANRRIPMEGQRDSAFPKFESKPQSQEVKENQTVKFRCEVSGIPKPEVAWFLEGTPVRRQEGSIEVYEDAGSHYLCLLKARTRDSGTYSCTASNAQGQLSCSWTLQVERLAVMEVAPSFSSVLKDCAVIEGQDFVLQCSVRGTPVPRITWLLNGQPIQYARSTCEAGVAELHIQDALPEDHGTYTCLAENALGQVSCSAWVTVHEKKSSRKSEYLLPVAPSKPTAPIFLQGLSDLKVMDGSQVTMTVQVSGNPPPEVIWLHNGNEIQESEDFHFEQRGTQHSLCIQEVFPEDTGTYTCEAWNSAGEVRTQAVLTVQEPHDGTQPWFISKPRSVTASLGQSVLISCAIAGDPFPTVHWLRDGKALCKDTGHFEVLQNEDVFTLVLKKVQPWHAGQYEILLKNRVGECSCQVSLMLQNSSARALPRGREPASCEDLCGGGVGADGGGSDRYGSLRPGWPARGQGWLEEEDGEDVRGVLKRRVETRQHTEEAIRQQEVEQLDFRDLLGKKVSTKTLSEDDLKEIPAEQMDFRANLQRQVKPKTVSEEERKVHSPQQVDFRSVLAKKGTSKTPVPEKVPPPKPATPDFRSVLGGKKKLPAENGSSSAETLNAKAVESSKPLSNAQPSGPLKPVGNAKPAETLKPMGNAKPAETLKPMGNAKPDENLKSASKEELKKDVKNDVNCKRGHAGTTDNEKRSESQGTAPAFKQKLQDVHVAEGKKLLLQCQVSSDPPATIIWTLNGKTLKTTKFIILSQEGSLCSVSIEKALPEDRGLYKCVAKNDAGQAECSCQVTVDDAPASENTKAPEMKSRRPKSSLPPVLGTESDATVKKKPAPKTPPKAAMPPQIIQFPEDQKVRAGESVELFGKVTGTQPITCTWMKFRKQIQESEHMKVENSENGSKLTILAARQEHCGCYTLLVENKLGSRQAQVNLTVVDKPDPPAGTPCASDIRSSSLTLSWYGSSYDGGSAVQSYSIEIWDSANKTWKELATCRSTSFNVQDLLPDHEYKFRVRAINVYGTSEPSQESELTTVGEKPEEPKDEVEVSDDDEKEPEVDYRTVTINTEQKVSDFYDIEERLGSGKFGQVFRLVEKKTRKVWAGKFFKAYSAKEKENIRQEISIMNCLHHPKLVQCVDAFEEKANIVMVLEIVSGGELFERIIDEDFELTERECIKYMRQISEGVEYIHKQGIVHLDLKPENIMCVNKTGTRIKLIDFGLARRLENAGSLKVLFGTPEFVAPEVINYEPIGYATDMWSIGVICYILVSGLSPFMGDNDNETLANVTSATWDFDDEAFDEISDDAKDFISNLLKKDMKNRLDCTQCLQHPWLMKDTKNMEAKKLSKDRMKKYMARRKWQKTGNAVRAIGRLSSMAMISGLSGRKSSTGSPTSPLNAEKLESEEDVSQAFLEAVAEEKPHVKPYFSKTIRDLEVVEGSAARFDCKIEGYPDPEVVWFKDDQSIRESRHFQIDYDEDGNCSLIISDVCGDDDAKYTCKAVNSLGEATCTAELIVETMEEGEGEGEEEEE
Sequence of Dual specificity protein kinase CLK4 (Q9HAZ1 whole entry, looked up): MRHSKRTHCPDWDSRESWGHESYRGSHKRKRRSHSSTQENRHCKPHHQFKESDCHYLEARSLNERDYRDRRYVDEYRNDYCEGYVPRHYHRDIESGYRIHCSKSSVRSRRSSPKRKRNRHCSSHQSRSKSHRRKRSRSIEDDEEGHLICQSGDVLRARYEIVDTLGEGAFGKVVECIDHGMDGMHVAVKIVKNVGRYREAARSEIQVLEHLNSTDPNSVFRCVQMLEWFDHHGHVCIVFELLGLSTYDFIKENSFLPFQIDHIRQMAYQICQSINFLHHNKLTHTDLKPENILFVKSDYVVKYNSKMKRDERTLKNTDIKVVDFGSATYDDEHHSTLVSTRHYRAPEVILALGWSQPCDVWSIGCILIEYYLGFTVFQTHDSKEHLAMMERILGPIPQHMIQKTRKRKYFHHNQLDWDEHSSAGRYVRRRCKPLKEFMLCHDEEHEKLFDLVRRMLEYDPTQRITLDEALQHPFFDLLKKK

With `CNC(=O)Nc1ccc(-c2nc(N3CC4CCC(C3)O4)c3cnn(C4CCC5(CC4)OCCO5)c3n2)cc1`, the % of control in experiment [1] turned out to be 88%; in experiment [2] it was 100%.
In experiment [3], `COc1cc(N(C)c2ccnc3ccc(C(F)(F)F)cc23)cc(OC)c1OC` returned a % binding of 100%.
For `CCN(CC)CCCCNc1ncc2cc(-c3cc(OC)cc(OC)c3)c(NC(=O)NC(C)(C)C)nc2n1`, the % of control in experiment [4], in experiment [5], in experiment [6] and in [7] was 100% in each case.
As to `C=CC(=O)Nc1cccc(C(=O)Nc2ccc(Nc3cc(-c4[nH]c(SC)nc4C)ccn3)cc2)c1`, the % of control in experiment [8] (at 1 µM) is 88%; in experiment [8] (at 5 µM), 93%.
Compound `O[C@H]1CC[C@H](Nc2ncc3nc(Nc4c(F)cc(F)cc4F)n([C@H]4CCOC4)c3n2)CC1` had a % of control in experiment [9] of 90%.

These data come from ChEMBL document CHEMBL5465560, “Selectivity Literature for EUbOPEN Chemogenomic Library” (2024).
